Measured values: ChEMBL document CHEMBL4043197, “Quinazoline-1-deoxynojirimycin hybrids as high active dual inhibitors of EGFR and α-glucosidase” (Bioorg Med Chem Lett, 2017)
pIC50: −log10 of the molar value. Where a name gives a salt, the structure may show the parent alone.

Columns and labels:
[1] = Inhibition of recombinant alpha-glucosidase (unknown origin) using PNP-G as substrate preincubated for 5 mins followed by substrate addition measured after 30 mins by spectrophotometric analysis; parameters: species or system Homo sapiens
[2] = molecular target: T1, Epidermal growth factor receptor (Homo sapiens, UniProt P00533); settings: at 50 nM
Description: Inhibition of wild type recombinant EGFR (unknown origin) at 50 nM by ELISA relative to control

[3] = molecular target: T1, Epidermal growth factor receptor; experiment: Inhibition of wild type recombinant EGFR (unknown origin) by ELISA

T1 sequence (P00533 whole entry): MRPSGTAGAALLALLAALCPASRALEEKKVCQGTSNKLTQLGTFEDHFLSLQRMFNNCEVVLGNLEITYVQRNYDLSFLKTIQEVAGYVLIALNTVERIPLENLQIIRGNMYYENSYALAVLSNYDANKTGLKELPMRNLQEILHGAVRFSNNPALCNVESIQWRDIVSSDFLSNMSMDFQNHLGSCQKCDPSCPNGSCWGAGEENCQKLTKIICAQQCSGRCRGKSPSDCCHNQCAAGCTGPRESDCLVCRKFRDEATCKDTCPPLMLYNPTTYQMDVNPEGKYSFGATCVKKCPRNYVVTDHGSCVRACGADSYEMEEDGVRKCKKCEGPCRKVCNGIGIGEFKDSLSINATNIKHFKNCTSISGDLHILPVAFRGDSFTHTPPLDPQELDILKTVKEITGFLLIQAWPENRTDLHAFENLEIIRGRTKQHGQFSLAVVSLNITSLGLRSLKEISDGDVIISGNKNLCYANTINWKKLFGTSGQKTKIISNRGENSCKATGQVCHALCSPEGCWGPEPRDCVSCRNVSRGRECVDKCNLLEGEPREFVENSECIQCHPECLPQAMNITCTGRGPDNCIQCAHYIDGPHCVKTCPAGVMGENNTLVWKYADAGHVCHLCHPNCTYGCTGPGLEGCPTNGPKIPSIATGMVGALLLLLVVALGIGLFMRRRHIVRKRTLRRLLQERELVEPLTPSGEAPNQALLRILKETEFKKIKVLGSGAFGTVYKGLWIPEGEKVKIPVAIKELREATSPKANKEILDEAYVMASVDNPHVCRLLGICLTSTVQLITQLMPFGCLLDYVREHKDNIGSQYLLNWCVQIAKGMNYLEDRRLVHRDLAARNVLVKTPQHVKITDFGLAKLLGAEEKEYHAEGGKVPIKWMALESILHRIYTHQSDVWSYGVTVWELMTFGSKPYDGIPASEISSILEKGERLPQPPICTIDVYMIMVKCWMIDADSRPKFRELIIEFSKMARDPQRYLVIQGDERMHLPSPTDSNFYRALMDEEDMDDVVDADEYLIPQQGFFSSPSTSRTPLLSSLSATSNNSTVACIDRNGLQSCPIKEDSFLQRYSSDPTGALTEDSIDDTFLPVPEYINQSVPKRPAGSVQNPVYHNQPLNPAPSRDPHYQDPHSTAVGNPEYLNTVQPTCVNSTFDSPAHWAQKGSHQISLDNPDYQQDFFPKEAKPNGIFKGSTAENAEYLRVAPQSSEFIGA

Row | SMILES | pIC50 [1] | inhibition [2] [%] | pIC50 [3]
1 | OC[C@H]1NC[C@H](O)[C@@H](O)[C@@H]1O [DUVOGLUSTAT HYDROCHLORIDE] | 7.15 |  | 
2 | COc1cc2ncnc(Nc3ccc(OCc4cccc(F)c4)c(Cl)c3)c2cc1OCCN1C[C@H](O)[C@@H](O)[C@H](O)[C@H]1CO | 4.19 | 66.5 | 
3 | COc1cc2ncnc(Nc3ccc(F)c(Cl)c3)c2cc1OCCCN1C[C@H](O)[C@@H](O)[C@H](O)[C@H]1CO | 5.36 | 83.5 | 7.97
4 | OC[C@@H]1[C@@H](O)[C@H](O)[C@@H](O)CN1Cc1ccc(-c2ccc3ncnc(Nc4ccc(F)c(Cl)c4)c3c2)o1 |  | 78 | 
5 | COc1cc2ncnc(Nc3ccc(F)c(Cl)c3)c2cc1OCCN1C[C@H](O)[C@@H](O)[C@H](O)[C@H]1CO | 5.08 | 65.2 | 
6 | COc1cc2c(Nc3ccc(OCc4cccc(F)c4)c(Cl)c3)ncnc2cc1OCCCN1C[C@H](O)[C@@H](O)[C@H](O)[C@H]1CO | 6.85 | 78.2 | 8.34
7 | COc1cc2ncnc(Nc3ccc(OCc4cccc(F)c4)c(Cl)c3)c2cc1OCCCN1C[C@H](O)[C@@H](O)[C@H](O)[C@H]1CO | 4.67 | 74.9 | 
8 | COc1cc2c(Nc3ccc(F)c(Cl)c3)ncnc2cc1OCCCN1C[C@H](O)[C@@H](O)[C@H](O)[C@H]1CO | 6.41 | 85.3 | 8.75
9 | C#Cc1cccc(Nc2ncnc3cc(OCCN4C[C@H](O)[C@@H](O)[C@H](O)[C@H]4CO)c(OC)cc23)c1 | 5.20 | 53.5 | 
10 | OC[C@@H]1[C@@H](O)[C@H](O)[C@@H](O)CN1Cc1ccc(-c2ccc3ncnc(Nc4ccc(OCc5cccc(F)c5)c(Cl)c4)c3c2)o1 |  | 50.6 | 
11 | C#Cc1cccc(Nc2ncnc3ccc(-c4ccc(CN5C[C@H](O)[C@@H](O)[C@H](O)[C@H]5CO)o4)cc23)c1 |  | 27.1 | 
12 | OCCN1C[C@H](O)[C@@H](O)[C@H](O)[C@H]1CO [MIGLITOL] | 5.61 |  | 
13 | C#Cc1cccc(Nc2ncnc3cc(OCCCN4C[C@H](O)[C@@H](O)[C@H](O)[C@H]4CO)c(OC)cc23)c1 | 7.05 | 83.2 | 8.31
14 | C#Cc1cccc(Nc2ncnc3cc(OC)c(OCCCN4C[C@H](O)[C@@H](O)[C@H](O)[C@H]4CO)cc23)c1 | 5.21 | 79.6 | 
15 | C#Cc1cccc(Nc2ncnc3cc(OC)c(OCCN4C[C@H](O)[C@@H](O)[C@H](O)[C@H]4CO)cc23)c1 | 5.14 | 56.4 | 
16 | COc1cc2c(Nc3ccc(F)c(Cl)c3)ncnc2cc1OCCN1C[C@H](O)[C@@H](O)[C@H](O)[C@H]1CO | 6.60 | 53.7 | 
